The text below walks through data of PMC12340637, “Transport of Small Aliphatic Amines by Polyspecific Solute Carriers: Deciphering Structure–Function Relationships” (ACS Pharmacology & Translational Science, 2025).

Marks after values point to notes of the source that are not given here.

For test [1], the target named is T1, OCT1 (SLC22A1) (Homo sapiens, UniProt O15245).
T1 sequence (O15245 1-554): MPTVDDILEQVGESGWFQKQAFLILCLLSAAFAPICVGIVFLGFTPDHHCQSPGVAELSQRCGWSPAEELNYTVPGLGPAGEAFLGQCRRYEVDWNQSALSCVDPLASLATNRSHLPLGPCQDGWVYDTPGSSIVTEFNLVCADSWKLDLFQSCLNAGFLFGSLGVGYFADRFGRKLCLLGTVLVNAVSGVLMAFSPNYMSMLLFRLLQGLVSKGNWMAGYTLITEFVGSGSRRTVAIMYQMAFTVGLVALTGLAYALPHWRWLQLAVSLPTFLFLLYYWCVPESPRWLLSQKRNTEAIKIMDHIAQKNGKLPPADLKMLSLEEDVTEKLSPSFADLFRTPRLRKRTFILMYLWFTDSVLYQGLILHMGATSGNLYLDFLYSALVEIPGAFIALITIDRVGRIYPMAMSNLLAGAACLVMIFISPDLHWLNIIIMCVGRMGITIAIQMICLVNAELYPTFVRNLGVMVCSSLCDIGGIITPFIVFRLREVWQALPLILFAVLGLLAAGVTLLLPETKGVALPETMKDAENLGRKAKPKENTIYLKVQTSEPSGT
Description: Cellular uptake into OCT1-overexpressing HEK293 cells vs EV control cells (HPLC-MS/MS). The note with it: for substrate activity at OCT1 (in words): uptake ratio ≥2 = notable transport; for uptake ratio OCT1 (transporter-overexpressing cells over EV control cells): mean (±SD, N): 10 μM substrate, 2 min, HEK293.

Test [2] has as its target MATE2-K (SLC47A2) (Homo sapiens, UniProt Q86VL8). Put plainly: Cellular uptake into MATE2-K-overexpressing HEK293 cells vs EV control cells (HPLC-MS/MS). Particulars: for uptake ratio MATE2K (transporter-overexpressing cells over EV control cells): mean (±SD, N): 2.5 μM substrate, 1 min, 30 mM NH4Cl preincubation, HEK293.
Test [3] deals with T2, OCT3 (SLC22A3) (Homo sapiens, UniProt O75751).
T2 sequence (O75751 1-556): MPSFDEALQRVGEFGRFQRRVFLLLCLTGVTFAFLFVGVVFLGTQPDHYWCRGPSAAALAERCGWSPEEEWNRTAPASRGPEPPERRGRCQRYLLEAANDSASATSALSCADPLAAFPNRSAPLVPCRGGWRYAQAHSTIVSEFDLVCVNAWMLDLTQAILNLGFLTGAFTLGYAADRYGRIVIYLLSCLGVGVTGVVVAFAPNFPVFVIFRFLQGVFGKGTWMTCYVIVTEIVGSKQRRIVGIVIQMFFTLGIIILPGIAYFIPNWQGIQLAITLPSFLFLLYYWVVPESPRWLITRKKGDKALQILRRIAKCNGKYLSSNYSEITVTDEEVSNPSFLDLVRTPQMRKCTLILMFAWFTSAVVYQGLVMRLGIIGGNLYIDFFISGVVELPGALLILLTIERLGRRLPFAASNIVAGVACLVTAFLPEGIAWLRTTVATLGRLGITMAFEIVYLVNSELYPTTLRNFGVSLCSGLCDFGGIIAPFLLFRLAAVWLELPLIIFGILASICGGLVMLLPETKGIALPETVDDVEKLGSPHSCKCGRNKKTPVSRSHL
Put plainly: Cellular uptake into OCT3-overexpressing HEK293 cells vs EV control cells (HPLC-MS/MS). Particulars: for substrate activity at OCT3 (in words): uptake ratio ≥2 = notable transport; for uptake ratio OCT3 (transporter-overexpressing cells over EV control cells): mean (±SD, N): 10 μM substrate, 2 min, HEK293.

The target in test [4] is T3, OCT2 (SLC22A2) (Homo sapiens, UniProt O15244).
T3 sequence (O15244 1-555): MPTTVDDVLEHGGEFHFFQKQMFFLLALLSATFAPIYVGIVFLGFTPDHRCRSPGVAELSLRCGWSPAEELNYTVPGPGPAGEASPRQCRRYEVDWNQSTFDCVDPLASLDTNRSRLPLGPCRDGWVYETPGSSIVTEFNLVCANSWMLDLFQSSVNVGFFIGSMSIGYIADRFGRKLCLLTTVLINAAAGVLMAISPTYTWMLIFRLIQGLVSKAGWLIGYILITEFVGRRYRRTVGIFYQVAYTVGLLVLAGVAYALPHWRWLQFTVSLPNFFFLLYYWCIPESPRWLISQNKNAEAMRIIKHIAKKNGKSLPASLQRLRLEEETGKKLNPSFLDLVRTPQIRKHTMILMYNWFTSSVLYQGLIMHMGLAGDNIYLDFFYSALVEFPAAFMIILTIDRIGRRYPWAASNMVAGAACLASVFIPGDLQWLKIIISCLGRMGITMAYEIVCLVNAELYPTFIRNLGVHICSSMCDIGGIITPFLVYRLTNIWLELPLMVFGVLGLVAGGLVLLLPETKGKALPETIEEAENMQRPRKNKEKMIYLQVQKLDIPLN
Put plainly: Cellular uptake into OCT2-overexpressing HEK293 cells vs EV control cells (HPLC-MS/MS). Particulars: for K m (±SEM) / v max (±SEM): OCT2, net uptake, Michaelis–Menten; for substrate activity at OCT2 (in words): uptake ratio ≥2 = notable transport; for uptake ratio OCT2 (transporter-overexpressing cells over EV control cells): mean (±SD, N): 10 μM substrate, 2 min, HEK293.

In test [5] the target is T4, MATE1 (SLC47A1) (Homo sapiens, UniProt Q96FL8).
T4 sequence (Q96FL8 1-570): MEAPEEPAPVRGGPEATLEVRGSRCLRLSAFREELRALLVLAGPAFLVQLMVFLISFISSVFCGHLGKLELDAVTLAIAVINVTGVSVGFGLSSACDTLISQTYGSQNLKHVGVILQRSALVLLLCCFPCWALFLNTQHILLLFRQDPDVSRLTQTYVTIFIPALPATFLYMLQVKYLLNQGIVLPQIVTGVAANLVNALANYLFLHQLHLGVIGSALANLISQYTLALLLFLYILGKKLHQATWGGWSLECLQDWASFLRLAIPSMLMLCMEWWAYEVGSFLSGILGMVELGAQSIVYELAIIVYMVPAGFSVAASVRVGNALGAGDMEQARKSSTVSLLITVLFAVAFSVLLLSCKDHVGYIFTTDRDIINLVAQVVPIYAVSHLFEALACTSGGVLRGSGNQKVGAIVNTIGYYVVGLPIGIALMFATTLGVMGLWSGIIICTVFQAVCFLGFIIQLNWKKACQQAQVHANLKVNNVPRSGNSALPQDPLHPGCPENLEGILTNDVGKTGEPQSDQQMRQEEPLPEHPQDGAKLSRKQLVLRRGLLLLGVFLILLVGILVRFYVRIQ
Put plainly: Cellular uptake into MATE1-overexpressing HEK293 cells vs EV control cells (HPLC-MS/MS). Particulars: for substrate activity at MATE1 (in words): uptake ratio ≥2 = notable transport; for uptake ratio MATE1 (transporter-overexpressing cells over EV control cells): mean (±SD, N): 2.5 μM substrate, 1 min, 30 mM NH4Cl preincubation, HEK293.

The mark [6] stands for this setting: OCT1, net uptake, Michaelis–Menten.
The mark [7] stands for this setting: OCT3, net uptake, Michaelis–Menten.
Where [8] appears, read: MATE1, net uptake, Michaelis–Menten.

MATE2-K (SLC47A2), sequence (Q86VL8 1-566 isoform Q86VL8-3): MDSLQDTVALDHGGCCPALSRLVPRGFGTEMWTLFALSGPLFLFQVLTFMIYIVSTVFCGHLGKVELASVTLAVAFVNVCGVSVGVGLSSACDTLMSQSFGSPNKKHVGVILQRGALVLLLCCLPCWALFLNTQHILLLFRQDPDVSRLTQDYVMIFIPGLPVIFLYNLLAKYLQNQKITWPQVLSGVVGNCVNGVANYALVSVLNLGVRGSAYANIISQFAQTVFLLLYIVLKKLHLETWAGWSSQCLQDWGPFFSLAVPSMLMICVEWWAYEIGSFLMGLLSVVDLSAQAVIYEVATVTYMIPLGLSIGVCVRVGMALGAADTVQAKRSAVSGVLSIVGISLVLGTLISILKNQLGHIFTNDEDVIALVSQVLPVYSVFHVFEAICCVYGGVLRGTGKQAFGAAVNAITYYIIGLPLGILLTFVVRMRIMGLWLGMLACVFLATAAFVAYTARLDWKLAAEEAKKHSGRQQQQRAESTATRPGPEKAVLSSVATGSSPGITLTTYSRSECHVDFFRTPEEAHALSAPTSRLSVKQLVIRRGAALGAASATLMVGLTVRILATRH

For `NCCCCCO` [5-amino-1-pentanol], the “K m (±SEM)” value is given as 132 (±121) μM in test [1] (setting [6]), 5776 (±2458) μM in test [3] (setting [7]), 1260 (±452) μM in test [4] and 1040 (±451) μM in test [5] (setting [8]). Further, the “v max (±SEM)” value in test [1] (setting [6]) was 135 (±37) pmol/mg protein/min; in test [3] (setting [7]), 5271 (±1641) pmol/mg protein/min; in test [4], 14,996 (±2181) pmol/mg protein/min; in test [5] (setting [8]) it was 10,761 (±2694) pmol/mg protein/min. Also, the “substrate activity at OCT1 (in words)” value in test [1] is listed as “notable transport”. In addition, in test [2], the “uptake ratio MATE2K (transporter-overexpressing cells over EV control cells): mean (±SD, N)” value (“uptake ratio MATE2K … (±SD, N)” below) is on record as 1.2 (0.6, 5). In addition, the “substrate activity at OCT3 (in words)” value in test [3] is given as “notable transport”. Further, the “substrate activity at OCT2 (in words)” value in test [4] is given as “notable transport”. Moreover, the “substrate activity at MATE1 (in words)” value in test [5] is given as “notable transport”.

On to `CCCCCN` [amylamine], for which the “uptake ratio OCT1 (transporter-overexpressing cells over EV control cells): mean (±SD, N)” value (“uptake ratio OCT1 … (±SD, N)” below) in test [1] is reported as 1.2 (0.5, 4). In addition, the “uptake ratio MATE2K … (±SD, N)” value in test [2] was 0.8 (0.3, 3). The “uptake ratio OCT3 (transporter-overexpressing cells over EV control cells): mean (±SD, N)” value (“uptake ratio OCT3 … (±SD, N)” below) in test [3] is given as 0.9 (0.3, 4). Further, in test [4], the “uptake ratio OCT2 (transporter-overexpressing cells over EV control cells): mean (±SD, N)” value (“uptake ratio OCT2 … (±SD, N)” below) is reported as 6.7 (3.2, 4) ^a. Besides, the “uptake ratio MATE1 (transporter-overexpressing cells over EV control cells): mean (±SD, N)” value (“uptake ratio MATE1 … (±SD, N)” below) in test [5] was 0.5 (0.2, 3) ^a.

As to `NCC(O)CN` [1,3-diamino-2-propanol], the “uptake ratio OCT1 … (±SD, N)” value in test [1] is recorded as 1.4 (0.6, 5). The “uptake ratio MATE2K … (±SD, N)” value in test [2] is 0.8 (0.1, 3). Besides, in test [3], the “uptake ratio OCT3 … (±SD, N)” value is listed as 1.6 (0.3, 3). Besides, in test [4], the “uptake ratio OCT2 … (±SD, N)” value is 3.7 (2.4, 3); the “K m (±SEM)” value is 65 (±91) μM; the “v max (±SEM)” value is reported as 110 (±56) pmol/mg protein/min. In test [5], the “uptake ratio MATE1 … (±SD, N)” value is recorded as 1.1 (0.1, 3).

On to `CC(N)CN(CC(C)N)CC(C)N` (stereo not shown) [tris(2-aminopropyl)amine], for which, in test [1], the “uptake ratio OCT1 … (±SD, N)” value is given as “- ^d” and the “substrate activity at OCT1 (in words)” value was “did not show any substrate activity”. Also, the “uptake ratio MATE2K … (±SD, N)” value in test [2] is “- ^d”. Further, the “substrate activity at MATE2-K (in words)” value in test [2] (uptake ratio ≥2 = notable transport) is “did not show any substrate activity”. Besides, in test [3], the “uptake ratio OCT3 … (±SD, N)” value is recorded as “- ^d” and the “substrate activity at OCT3 (in words)” value was “did not show any substrate activity”. Besides, in test [4], the “uptake ratio OCT2 … (±SD, N)” value was “- ^d” and the “substrate activity at OCT2 (in words)” value is “did not show any substrate activity”. In addition, in test [5], the “uptake ratio MATE1 … (±SD, N)” value was “- ^d” and the “substrate activity at MATE1 (in words)” value is “did not show any substrate activity”.

In the case of `CCCCCCCN` [heptylamine], in test [1], the “uptake ratio OCT1 … (±SD, N)” value is 2.5 (1.9, 6). Also, the “uptake ratio MATE2K … (±SD, N)” value in test [2] is 1.4 (0.3, 4). Also, the “uptake ratio OCT3 … (±SD, N)” value in test [3] is listed as 1.85 (1.17, 6). In test [4], the “uptake ratio OCT2 … (±SD, N)” value is 4.2 (3.1, 6) ^a. Moreover, the “uptake ratio MATE1 … (±SD, N)” value in test [5] was 1.0 (0.3, 4).
